According to ChEMBL document CHEMBL1149085, “Potential utility of histamine H3 receptor antagonist pharmacophore in antipsychotics” (Bioorg Med Chem Lett, 2009):

Legend:
D(2) dopamine receptor = D(2) dopamine receptor (Homo sapiens, UniProt P14416); experiment: biochemical; assay type: cell-based, CHO
Description: Displacement of [3H]spiperone from human dopamine D2 receptor expressed in CHO cells

D(1A) dopamine receptor = D(1A) dopamine receptor (Homo sapiens, UniProt P21728); experiment: biochemical
Description: Displacement of [3H]SCH23390 from human dopamine D1 receptor expressed in HEK cells

D(1B) dopamine receptor = D(1B) dopamine receptor (Homo sapiens, UniProt P21918); experiment: biochemical
Chain of D(1B) dopamine receptor (P21918 whole entry): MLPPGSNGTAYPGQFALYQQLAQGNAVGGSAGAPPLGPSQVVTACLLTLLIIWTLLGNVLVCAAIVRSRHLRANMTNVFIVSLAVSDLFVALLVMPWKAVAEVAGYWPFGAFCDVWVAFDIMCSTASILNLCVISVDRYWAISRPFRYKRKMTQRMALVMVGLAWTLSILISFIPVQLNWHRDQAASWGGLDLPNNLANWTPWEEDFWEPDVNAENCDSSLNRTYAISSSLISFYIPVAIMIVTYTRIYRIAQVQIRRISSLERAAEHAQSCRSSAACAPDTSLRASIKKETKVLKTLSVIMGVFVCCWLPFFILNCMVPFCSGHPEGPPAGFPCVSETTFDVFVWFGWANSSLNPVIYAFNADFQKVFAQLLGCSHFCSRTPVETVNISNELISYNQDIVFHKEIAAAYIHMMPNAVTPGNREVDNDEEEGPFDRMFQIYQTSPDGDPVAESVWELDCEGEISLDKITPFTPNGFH

Histamine H3 receptor = Histamine H3 receptor (Homo sapiens, UniProt Q9Y5N1); experiment: biochemical; assay type: cell-based, HEK293
Chain of Histamine H3 receptor (Q9Y5N1 whole entry): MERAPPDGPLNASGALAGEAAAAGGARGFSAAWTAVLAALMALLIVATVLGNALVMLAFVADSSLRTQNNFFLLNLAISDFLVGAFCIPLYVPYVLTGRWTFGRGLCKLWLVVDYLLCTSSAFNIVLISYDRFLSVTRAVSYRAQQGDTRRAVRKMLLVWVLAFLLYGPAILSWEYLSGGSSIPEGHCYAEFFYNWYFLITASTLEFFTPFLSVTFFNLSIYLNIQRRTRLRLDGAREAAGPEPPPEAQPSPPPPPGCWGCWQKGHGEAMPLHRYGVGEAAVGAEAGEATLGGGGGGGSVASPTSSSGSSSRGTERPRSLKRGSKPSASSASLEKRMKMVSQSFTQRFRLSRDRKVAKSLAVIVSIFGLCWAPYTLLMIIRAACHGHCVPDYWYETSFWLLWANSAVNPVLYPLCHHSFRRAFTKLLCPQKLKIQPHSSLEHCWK
Description: Displacement of [125I]iodoproxyfan from human histamine H3 receptor expressed in CHO/HEK293 cells

D(3) dopamine receptor = D(3) dopamine receptor (Homo sapiens, UniProt P35462); experiment: biochemical
Chain of D(3) dopamine receptor (P35462 whole entry): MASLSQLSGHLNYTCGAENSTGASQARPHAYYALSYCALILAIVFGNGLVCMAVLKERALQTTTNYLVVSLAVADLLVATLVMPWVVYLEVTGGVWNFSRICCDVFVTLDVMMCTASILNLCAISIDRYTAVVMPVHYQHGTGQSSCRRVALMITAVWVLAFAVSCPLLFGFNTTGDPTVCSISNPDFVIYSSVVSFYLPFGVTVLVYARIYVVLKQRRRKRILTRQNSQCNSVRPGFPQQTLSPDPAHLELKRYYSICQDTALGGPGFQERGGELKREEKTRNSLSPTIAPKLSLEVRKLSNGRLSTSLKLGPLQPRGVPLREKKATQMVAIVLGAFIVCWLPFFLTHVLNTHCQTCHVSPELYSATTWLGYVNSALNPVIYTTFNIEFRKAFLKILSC
Description: Displacement of [3H]spiperone from human dopamine D3 receptor expressed in CHO cells

Mus musculus = species on record: Mus musculus; experiment: animal or person; assay type: functional; settings: Swiss, Cerebral cortex, po, 1.5 h
Description: Antagonist activity at histamine H3 receptor in po dosed Swiss mouse cerebral cortex assessed as Ntau-methylhistamine level after 90 mins by radioimmunoassay

Chain of D(1A) dopamine receptor (P21728 whole entry): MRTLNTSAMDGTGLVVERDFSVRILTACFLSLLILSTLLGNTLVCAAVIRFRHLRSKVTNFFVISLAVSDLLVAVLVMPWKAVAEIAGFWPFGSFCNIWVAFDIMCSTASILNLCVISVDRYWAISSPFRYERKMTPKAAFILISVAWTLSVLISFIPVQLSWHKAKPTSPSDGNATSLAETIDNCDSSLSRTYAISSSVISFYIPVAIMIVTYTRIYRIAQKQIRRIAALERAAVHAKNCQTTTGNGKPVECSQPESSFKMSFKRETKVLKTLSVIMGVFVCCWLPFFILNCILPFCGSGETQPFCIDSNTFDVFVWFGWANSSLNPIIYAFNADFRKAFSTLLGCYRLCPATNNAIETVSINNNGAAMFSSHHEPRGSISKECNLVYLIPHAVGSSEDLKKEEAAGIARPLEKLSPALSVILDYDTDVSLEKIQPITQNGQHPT
Chain of D(2) dopamine receptor (P14416 whole entry): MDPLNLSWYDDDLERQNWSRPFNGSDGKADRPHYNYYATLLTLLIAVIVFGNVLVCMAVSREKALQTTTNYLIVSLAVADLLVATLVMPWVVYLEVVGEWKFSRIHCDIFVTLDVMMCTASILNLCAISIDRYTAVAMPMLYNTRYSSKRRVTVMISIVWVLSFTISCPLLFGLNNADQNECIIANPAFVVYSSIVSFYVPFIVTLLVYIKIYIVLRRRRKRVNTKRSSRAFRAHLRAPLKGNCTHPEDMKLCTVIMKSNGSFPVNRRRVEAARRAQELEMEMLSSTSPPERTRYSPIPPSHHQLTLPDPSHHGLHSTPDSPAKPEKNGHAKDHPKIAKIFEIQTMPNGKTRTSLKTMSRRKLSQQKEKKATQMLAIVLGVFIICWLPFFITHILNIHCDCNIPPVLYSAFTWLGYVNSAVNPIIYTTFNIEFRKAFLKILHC

Compound | Ki (D(2) dopamine receptor) | Ki (D(1A) dopamine receptor) | Ki (D(1B) dopamine receptor) | Ki (Histamine H3 receptor) | Ki (D(3) dopamine receptor) | ED50 (Mus musculus)
CN(C)CC/C=C1/c2ccccc2Sc2ccc(Cl)cc21 [CHLORPROTHIXENE] | 2.96 nM | – | 9 nM | – | 4.56 nM | –
CN(C)CCC=C1c2ccccc2CCc2ccccc21 [AMITRIPTYLINE] | 196 nM | […] | 170 nM | > 1000 nM | 206 nM | –
Clc1ccc2c(c1)N=C(N1CCN(Cc3ccc(OCCCN4CCCCC4)cc3)CC1)c1ccccc1N2 | 285 nM | 866 nM | 921 nM | 3.27 nM | 223 nM | –
O=C(OCCN1CCN(CCCN2c3ccccc3Sc3ccc(C(F)(F)F)cc32)CC1)c1ccc(OCCCN2CCCCC2)cc1 | 47 nM | 203 nM | 265 nM | 0.042 nM | 15 nM | –

Further lines, with some results ahead:

Ki (D(2) dopamine receptor) | Ki (D(1A) dopamine receptor) | Ki (D(1B) dopamine receptor) | Ki (Histamine H3 receptor) | Ki (D(3) dopamine receptor) | Compound | ED50 (Mus musculus)
904 nM | 879 nM | > 1000 nM | 4.9 nM | 326 nM | CN(CCC=C1c2ccccc2CCc2ccccc21)C(=O)Cc1ccc(OCCCN2CCCCC2)cc1 | –
> 1000 nM | > 1000 nM | > 1000 nM | 3.5 nM | 243 nM | CN(CCC=C1c2ccccc2CCc2ccccc21)C(=O)c1ccc(OCCCN2CCCCC2)cc1 | –
41 nM | 232 nM | 153 nM | 1.21 nM | 50 nM | CN(CCCN1c2ccccc2Sc2ccc(Cl)cc21)Cc1ccc(OCCCN2CCCCC2)cc1 | –
52 nM | 248 nM | – | 1.54 nM | 50 nM | CN(CC/C=C1\c2ccccc2Sc2ccc(Cl)cc21)Cc1ccc(OCCCN2CCCCC2)cc1 | –
101 nM | 305 nM | 273 nM | 0.25 nM | 67 nM | CN(CCC=C1c2ccccc2CCc2ccccc21)Cc1ccc(OCCCN2CCCCC2)cc1 | > 10 mg/kg
146 nM | 203 nM | 265 nM | 0.358 nM | 149 nM | CN(CCCC12CCC(c3ccccc31)c1ccccc12)Cc1ccc(OCCCN2CCCCC2)cc1 | –
